Consider 2 compounds from PubChem BioAssay AID588733 (Vanderbilt Specialized Chemistry Center, 2011).

Calls of active or inactive are those of the source. The rule behind the calls is not given here.

In the assay the target is Metabotropic glutamate receptor 2 (Rattus norvegicus) (UniProt P31421). Description: rat mGlu2 allosteric modulation, glutamate curve shift, thallium flux, GIRK cells (AID 588733). The conditions noted are these: glutamate CRC fold shift, at 10 µM, hits give high values.
Metabotropic glutamate receptor 2 (Rattus norvegicus), sequence (P31421 whole entry, looked up): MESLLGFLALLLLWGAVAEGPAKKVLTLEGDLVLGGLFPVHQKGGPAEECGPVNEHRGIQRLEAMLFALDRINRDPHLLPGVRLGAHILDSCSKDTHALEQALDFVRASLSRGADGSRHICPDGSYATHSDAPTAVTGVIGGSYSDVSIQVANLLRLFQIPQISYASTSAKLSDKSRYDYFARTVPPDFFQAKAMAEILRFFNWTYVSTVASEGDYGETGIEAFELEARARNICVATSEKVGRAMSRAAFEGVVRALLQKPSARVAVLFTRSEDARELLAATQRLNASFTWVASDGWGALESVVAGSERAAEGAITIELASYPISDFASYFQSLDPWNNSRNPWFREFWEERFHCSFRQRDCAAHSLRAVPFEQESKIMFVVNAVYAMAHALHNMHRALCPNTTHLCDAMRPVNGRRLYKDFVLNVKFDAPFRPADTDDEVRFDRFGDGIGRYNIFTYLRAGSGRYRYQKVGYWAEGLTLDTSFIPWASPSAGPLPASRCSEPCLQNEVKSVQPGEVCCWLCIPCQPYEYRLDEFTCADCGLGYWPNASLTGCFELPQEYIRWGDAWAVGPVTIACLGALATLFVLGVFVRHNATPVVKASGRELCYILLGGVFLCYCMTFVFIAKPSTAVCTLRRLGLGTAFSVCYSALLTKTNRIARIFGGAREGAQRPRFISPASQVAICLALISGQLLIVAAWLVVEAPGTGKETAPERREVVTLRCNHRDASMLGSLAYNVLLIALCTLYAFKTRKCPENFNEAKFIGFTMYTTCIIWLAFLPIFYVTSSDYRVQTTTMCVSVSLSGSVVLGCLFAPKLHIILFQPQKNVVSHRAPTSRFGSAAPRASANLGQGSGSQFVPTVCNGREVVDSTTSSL

Regarding `C[C@@H](NC(=O)c1ccc(C#Cc2cccc(F)c2)cn1)C(C)(C)O`, the fold shift is 1.02 (inactive).

For the compound `CC1(NC(=O)c2ccc(C#Cc3cccc(F)c3)cn2)COC1`, the fold shift is 0.92 (inactive).
